Reference: US8765746B2 (Millennium Pharmaceuticals, Inc., priority 2010, dated 2014)

Experiments:
Format in all cases: biochemical
PI3Kalpha = biological target: T1, PI3Kalpha (Homo sapiens, UniProt P42336); experiment: Human PI3Kα enzyme assay (HTRF); conditions: for inhibition at 1.11 µM: read-out: PI3Kalpha % inh; for PI3Kalpha % inh: at 1.11 μM
T1 construct: His (N); host or cells: SF9 insect cells (baculovirus)
Excerpt: (§1) The catalytic subunits of PI3Ks are cloned into either pDEST8(p110 alpha) or pDEST10(p110beta, p110delta, and p110gamma) as N-terminal His tagged fusion proteins using the Gateway system (Invitrogen, catalog#11804-010 for pDEST8 and 11806-015 for pDEST10). The sequences are verified before recombinant protein expression using the Baculovirus Expression System with Gateway® Technology. The accession numbers for the subunits are as follows:
(§2) The regulatory subunits of PI3Ks are cloned into pDEST8 as un-tagged protein using the Gateway system (Catalog#11804-010). The sequences are verified before recombinant protein expression using the Baculovirus Expression System with Gateway® Technology. The accession numbers for the subunits are as follows:
(§3) For expression of the p110 complexes, the p85 (MOI of 4) is co-infected with p110 alpha, beta, and delta respectively (1MOI) in SF9 cells and harvested at 60 hours post co-infection. P110 gamma was infected at 1 MOI and harvested at 60 hours post infection.
(§4) For purification, PI3Ks are purified by Ni-NTA Agarose (Qiagen #30250) followed by Mono Q 10/100 GL (Ge Healthcare #17-5167-01). VPS34 is purified by Glutathione Sepharose 4 Fast Flow (GE Healthcare #17-5132-03) followed by HiTrap Q (GE Healthcare #17-1153-01).
1) Human PI3Kα enzyme assay method
(§5) 0.5 uL compounds in DMSO are added to wells of a 384 well microtitre plate (Corning 3575). At room temperature: 10 ul PI3K reaction buffer (50 mM Hepes, 5 mM DTT, 150 mM NaCl, 10 mM beta-glycerophosphate, 10 mM MgCl2, 0.25 mM sodium cholate and 0.001% CHAPS, pH 7.00) containing ATP (25 uM, Promega) is added followed immediately by 10 ul PI3K reaction buffer containing di-C8 PI(4,5)P2 (3.5 uM, CellSignals) and PI3Kalpha (0.4875 nM, Millennium Protein Sciences Group) and the mixture is incubated with shaking at room temperature for 30 minutes. Then 5 ul PI3K stop mix (50 mM Hepes, 5 mM DTT, 150 mM NaCl, 0.01% Tween-20, 15 mM EDTA and 25 nM biotin-PI(3,4,5)P3 (Echelon) is added to quench the reaction followed immediately by addition of 5 ul HTRF detection mix (50 mM Hepes, 5 mM DTT, 150 mM NaCl, 0.01% Tween-20, 40 mM KF, 10 nM GST:GRP-1 PH domain (Millennium Protein Sciences Group), 15 nM Streptavidin-XL (CisBio) and 0.375 nM anti-GST Eu++ antibody (CisBio) at pH 7.00). The plates are then incubated for 1 hour at room temperature with shaking and then read on a BMG PheraStar Plus reader.

PI3Kbeta = biological target: T2, PI3Kbeta (Homo sapiens, UniProt P42338); experiment: Human PI3K beta enzyme assay (HTRF, as for PI3K alpha); conditions: at 1.11 μM; for inhibition at 1.11 µM: read-out: PI3Kbeta % inh
T2 construct: His (N); host or cells: SF9 insect cells (baculovirus)
Excerpt: as §1, §2, §3, §4, §5
(§6) 2) Human PI3K beta, delta and gamma isoforms are tested using the procedure described for PI3K alpha above but with the following changes: PI3K beta (5.25 nM), PI3K delta (0.75 nM) and PI3K gamma (5 nM). All isoforms supplied by Millennium Protein Science Group.

PI3Kgamma = biological target: T3, PI3Kgamma (Homo sapiens, UniProt P48736); experiment: Human PI3K gamma enzyme assay (HTRF, as for PI3K alpha); conditions: for inhibition at 1.11 µM: read-out: PI3Kgamma % inh
T3 construct: His (N); host or cells: SF9 insect cells (baculovirus)
Excerpt: as §1, §2, §3, §4, §5, §6

PI3Kdelta = biological target: T4, PI3Kdelta (Homo sapiens, UniProt O00329); experiment: Human PI3K delta enzyme assay (HTRF, as for PI3K alpha); conditions: for inhibition at 1.11 µM: read-out: PI3Kdelta % inh
T4 construct: His (N); host or cells: SF9 insect cells (baculovirus)
Excerpt: as §1, §2, §3, §4, §5, §6

T2 sequence (P42338 whole entry): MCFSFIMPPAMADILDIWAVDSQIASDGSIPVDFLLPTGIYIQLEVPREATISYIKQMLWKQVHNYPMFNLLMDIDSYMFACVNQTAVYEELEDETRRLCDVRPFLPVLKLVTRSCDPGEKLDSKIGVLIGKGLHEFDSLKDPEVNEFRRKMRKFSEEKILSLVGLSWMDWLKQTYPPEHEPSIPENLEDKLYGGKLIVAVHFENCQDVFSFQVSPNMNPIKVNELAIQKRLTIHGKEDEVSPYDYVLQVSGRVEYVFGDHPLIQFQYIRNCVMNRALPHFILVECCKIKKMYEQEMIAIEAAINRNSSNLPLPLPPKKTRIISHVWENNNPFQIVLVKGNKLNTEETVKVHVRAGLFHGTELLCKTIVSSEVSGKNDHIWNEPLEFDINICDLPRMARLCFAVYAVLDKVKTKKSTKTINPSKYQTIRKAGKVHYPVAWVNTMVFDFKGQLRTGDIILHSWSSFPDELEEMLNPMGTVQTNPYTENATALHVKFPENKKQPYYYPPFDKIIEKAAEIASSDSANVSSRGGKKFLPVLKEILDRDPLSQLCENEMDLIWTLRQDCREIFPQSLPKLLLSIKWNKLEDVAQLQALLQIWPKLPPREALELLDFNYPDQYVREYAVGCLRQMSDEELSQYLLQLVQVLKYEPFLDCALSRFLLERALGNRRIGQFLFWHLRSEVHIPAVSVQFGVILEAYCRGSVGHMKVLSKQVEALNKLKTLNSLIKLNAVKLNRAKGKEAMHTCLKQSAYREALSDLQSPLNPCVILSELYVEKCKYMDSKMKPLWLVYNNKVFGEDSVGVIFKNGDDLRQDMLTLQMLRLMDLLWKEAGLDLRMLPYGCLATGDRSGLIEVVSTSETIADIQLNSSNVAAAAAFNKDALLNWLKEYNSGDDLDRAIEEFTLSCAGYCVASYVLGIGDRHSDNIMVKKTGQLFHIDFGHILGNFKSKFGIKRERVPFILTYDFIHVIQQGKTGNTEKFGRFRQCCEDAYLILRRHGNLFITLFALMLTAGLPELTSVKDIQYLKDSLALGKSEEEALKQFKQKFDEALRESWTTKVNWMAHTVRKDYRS
T2 sequence (P27986 whole entry partner): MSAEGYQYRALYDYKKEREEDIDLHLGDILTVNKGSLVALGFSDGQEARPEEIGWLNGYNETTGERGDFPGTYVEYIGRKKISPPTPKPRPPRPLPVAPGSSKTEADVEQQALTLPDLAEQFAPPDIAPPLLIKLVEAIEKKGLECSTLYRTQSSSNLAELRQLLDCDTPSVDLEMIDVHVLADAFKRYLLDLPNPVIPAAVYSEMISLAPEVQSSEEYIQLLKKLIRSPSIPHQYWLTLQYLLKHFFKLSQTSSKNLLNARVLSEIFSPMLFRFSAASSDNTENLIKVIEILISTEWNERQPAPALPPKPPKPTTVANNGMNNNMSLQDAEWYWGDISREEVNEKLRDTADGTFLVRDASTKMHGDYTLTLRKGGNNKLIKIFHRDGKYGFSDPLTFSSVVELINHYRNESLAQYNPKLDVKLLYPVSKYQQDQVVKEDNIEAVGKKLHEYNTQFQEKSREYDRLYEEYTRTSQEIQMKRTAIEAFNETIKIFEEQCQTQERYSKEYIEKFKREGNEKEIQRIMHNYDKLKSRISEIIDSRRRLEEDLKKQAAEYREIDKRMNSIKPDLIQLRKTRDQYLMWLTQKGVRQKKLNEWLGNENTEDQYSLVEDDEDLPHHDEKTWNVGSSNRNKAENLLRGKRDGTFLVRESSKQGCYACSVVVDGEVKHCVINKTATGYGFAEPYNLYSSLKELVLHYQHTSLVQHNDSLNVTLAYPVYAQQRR
T1 sequence (P42336 whole entry): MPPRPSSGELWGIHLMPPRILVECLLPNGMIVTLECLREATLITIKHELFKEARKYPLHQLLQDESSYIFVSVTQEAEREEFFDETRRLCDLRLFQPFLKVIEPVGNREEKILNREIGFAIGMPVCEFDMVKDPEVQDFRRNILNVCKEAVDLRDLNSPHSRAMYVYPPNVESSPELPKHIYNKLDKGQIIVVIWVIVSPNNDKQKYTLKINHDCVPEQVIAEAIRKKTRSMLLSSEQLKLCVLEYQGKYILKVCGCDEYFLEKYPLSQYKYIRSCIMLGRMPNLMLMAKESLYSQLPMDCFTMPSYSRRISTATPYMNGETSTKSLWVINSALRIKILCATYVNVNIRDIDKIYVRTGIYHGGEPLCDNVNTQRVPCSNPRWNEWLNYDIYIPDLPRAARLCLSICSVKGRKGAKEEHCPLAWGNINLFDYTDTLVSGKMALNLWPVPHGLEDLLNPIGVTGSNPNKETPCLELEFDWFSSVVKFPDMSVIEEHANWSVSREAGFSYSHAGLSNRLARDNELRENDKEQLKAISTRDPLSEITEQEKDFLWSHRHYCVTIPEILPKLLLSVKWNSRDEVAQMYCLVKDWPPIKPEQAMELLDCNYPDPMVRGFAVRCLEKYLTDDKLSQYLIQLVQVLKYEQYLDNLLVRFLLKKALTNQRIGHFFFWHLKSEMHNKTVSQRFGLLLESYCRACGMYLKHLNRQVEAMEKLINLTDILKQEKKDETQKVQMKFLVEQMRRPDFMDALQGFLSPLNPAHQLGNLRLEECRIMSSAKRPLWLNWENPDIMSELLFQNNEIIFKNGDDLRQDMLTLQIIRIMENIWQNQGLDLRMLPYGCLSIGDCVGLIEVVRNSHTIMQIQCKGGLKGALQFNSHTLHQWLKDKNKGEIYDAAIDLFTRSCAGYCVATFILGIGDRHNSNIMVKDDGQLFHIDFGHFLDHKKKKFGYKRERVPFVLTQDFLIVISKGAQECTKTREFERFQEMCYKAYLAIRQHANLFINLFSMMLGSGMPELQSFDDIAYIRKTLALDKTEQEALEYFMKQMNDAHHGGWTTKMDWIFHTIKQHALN
T1 sequence (P27986 whole entry partner): as the sequence (P27986 whole entry partner) above
T4 sequence (O00329 whole entry): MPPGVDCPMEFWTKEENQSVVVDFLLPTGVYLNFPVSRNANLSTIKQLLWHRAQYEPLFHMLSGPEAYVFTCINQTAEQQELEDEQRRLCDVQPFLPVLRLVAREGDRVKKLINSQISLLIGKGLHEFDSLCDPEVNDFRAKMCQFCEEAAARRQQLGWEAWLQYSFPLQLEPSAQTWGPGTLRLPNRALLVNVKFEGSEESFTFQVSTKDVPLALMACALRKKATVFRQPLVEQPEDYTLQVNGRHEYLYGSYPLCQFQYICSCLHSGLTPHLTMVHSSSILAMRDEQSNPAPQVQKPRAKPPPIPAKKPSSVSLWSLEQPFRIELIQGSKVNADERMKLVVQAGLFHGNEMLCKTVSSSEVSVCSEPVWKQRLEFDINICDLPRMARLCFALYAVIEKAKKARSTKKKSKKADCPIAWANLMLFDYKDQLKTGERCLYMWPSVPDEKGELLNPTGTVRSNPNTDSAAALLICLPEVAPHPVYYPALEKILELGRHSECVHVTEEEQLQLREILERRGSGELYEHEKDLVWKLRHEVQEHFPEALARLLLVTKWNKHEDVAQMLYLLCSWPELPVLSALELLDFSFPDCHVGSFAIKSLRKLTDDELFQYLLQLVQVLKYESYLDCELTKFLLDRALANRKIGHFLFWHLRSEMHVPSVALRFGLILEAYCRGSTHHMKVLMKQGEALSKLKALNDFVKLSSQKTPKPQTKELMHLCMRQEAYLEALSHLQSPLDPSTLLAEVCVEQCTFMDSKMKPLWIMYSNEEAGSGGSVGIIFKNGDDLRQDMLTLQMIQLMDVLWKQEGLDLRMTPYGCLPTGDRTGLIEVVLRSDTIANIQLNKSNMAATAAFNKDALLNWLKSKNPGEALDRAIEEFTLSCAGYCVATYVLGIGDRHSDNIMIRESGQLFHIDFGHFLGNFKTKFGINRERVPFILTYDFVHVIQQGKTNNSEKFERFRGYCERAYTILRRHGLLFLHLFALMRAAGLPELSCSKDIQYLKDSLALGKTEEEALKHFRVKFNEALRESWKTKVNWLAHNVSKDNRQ
T4 sequence (P27986 whole entry partner): as the sequence (P27986 whole entry partner) above
T3 sequence (P48736 whole entry): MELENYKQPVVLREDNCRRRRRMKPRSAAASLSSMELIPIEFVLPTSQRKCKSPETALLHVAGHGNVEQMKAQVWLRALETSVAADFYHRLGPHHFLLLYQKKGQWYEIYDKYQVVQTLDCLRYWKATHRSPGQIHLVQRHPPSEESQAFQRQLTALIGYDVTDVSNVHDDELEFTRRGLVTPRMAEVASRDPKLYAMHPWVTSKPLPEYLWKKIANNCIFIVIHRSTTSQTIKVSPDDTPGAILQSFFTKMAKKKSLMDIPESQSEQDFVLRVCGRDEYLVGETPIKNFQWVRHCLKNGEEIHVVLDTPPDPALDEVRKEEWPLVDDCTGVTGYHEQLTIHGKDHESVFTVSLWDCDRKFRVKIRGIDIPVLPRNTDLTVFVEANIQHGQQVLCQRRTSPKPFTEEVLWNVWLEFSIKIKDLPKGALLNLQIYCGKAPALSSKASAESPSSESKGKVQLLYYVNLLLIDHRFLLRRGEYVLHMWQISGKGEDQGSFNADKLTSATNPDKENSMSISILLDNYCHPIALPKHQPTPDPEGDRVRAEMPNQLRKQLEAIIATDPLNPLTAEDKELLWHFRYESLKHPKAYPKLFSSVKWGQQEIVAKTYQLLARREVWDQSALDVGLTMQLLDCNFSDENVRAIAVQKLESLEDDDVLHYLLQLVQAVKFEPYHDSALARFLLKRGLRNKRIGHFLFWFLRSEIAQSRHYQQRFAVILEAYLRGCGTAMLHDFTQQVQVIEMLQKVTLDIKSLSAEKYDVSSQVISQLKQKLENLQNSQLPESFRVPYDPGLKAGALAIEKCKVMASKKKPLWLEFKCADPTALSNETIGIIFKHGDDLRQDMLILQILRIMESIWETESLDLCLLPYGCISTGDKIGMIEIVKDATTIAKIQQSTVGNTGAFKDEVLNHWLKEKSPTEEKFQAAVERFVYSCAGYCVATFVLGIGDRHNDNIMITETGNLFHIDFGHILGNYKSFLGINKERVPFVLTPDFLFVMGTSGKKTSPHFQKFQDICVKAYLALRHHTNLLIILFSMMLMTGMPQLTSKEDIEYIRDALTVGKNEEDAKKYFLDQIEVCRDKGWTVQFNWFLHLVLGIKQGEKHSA

Row | Structure (SMILES) | inhibition at 1.11 µM (PI3Kalpha) | inhibition at 1.11 µM (PI3Kbeta) | inhibition at 1.11 µM (PI3Kgamma) | inhibition at 1.11 µM (PI3Kdelta) | PI3Kalpha % inh (PI3Kalpha) | PI3Kbeta % inh (PI3Kbeta) | further results
1 | NC(=O)[C@@H]1NC(=O)c2sc(N3CCOCC3)cc2[C@H]1c1ccc(Cl)c(Cl)c1 (relative stereo) [Compound 146, rel-(4R,5R)-4-(3,4-dichlorophenyl)-2-(morpholin-4-yl)-7-oxo-4,5,6,7-tetrahydrothieno[2,3-c]pyridine-5-carboxamide] | 40.4% | 107% | 50.7% | 99.7% |  |  | 
2 | O=C1N[C@@H](CO)[C@H](c2ccc(Cl)c(Cl)c2)c2cc(N3CCOCC3)sc21 (relative stereo) [Compound 192, rel-(4R,5R)-4-(3,4-dichlorophenyl)-5-(hydroxymethyl)-2-(morpholin-4-yl)-5,6-dihydrothieno[2,3-c]pyridin-7(4H)-one] | 39.6% | 106% | 52.9% | 105% |  |  | 
3 | O=C1CC(c2ccc3ccccc3c2)c2cc(N3CCOCC3)sc21 (stereo not shown) [Compound 119] | 42.4% | 107% | 60.3% | 99.8% |  |  | 
4 | CNC(=O)[C@@H]1NC(=O)c2sc(N3CCOCC3)cc2[C@H]1c1ccc(Cl)cc1 [Compound 123] |  |  | 10.4% | 49.6% | 32.28% | 101.46% | 
5 | O=C1NCC(c2ccc(Cl)cc2)c2nc(N3CCOCC3)sc21 (stereo not shown) [Compound 124] | 12.2% | 93.5% | 9.41% | 59.2% |  |  | 
6 | O=C1N[C@@H](CO)[C@H](c2ccc(Cl)cc2)c2cc(N3CCOCC3)sc21 [Compound 133] | 35% | 110% | 30.7% | 102% |  |  | 
7 | CCCOC(=O)[C@@H]1NC(=O)c2sc(N3CCOCC3)cc2[C@H]1c1ccc(Cl)cc1 [Compound 136] |  |  |  |  | 17.00% | 87.47% | PI3Kgamma % inh (PI3Kgamma; at 1.11 μM): 4.11%; PI3Kdelta % inh (PI3Kdelta; at 1.11 μM): 35.35%
8 | O=C1NCCC(c2ccc(Cl)cc2)c2cc(N3CCOCC3)sc21 (stereo not shown) [Compound 148] |  |  | 13.2% | 98.2% | 24.59% | 118.63% | 
9 | N#Cc1c(N2CCOCC2)sc2c1C(c1ccc(Cl)cc1)CCNC2=O (stereo not shown) [Compound 150] | 26.8% | 108% | 21.5% | 99.9% |  |  | 
10 | N#Cc1c(N2CCOCC2)sc2c1C(c1c(F)cc(Cl)cc1F)CNC2=O (stereo not shown) [Compound 151] | 43.1% | 103% | 41% | 90% |  |  | 
11 | O=C1N[C@@H](C(=O)NCCO)[C@H](c2ccc(Cl)cc2)c2cc(N3CCOCC3)sc21 [Compound 153] |  |  | 9.08% | 39.8% | 20.40% | 87.14% | 
12 | CC(C)NC(=O)[C@@H]1NC(=O)c2sc(N3CCOCC3)cc2[C@H]1c1ccc(Cl)cc1 [Compound 162] | 7.94% | 70.6% | 3.59% | 41.8% |  |  | 
13 | COC(=O)c1cc(C2CCNC(=O)c3sc(N4CCOCC4)nc32)ccc1Cl (stereo not shown) [Compound 174, methyl 2-chloro-5-[2-(morpholin-4-yl)-4-oxo-5,6,7,8-tetrahydro-4H-[1,3]thiazolo[5,4-c]azepin-8-yl]benzoate] | 4.56% | 82.5% |  |  |  |  | 
14 | COCCNC(=O)[C@@H]1NC(=O)c2sc(N3CCOCC3)cc2[C@H]1c1ccc(Cl)cc1 [Compound 177] | 29.6% | 58.5% |  |  |  |  | 
15 | Cc1cc(-c2nc3c(s2)C(=O)NCC3c2ccc3ccccc3c2)ccn1 (stereo not shown) [Compound 179] | 21.6% | 107% |  |  |  |  | 
16 | COC(=O)c1[nH]c(=O)c2sc(N3CCOCC3)cc2c1-c1ccc(Cl)c(Cl)c1 [Compound 184, methyl 4-(3,4-dichlorophenyl)-2-(morpholin-4-yl)-7-oxo-6,7-dihydrothieno[2,3-c]pyridine-5-carboxylate] | 6.62% | 77.5% |  |  |  |  | 
17 | N#Cc1c(N2CCOCC2)sc2c1C(c1ccc(Cl)c(Cl)c1)NC2=O (stereo not shown) [Compound 187] | 38.4% | 104% |  |  |  |  | 
18 | O=C1NCC(c2ccc3ccncc3c2)c2nc(N3CCOCC3)sc21 (stereo not shown) [Compound 189] | 25.9% | 116% |  |  |  |  | 

Row | Structure (SMILES) | inhibition at 1.11 µM (PI3Kalpha) | inhibition at 1.11 µM (PI3Kbeta) | inhibition at 1.11 µM (PI3Kgamma) | inhibition at 1.11 µM (PI3Kdelta) | PI3Kalpha % inh (PI3Kalpha) | PI3Kbeta % inh (PI3Kbeta) | further results
19 | Cc1cc(C2CNC(=O)c3sc(N4CCOCC4)cc32)ccc1Cl (stereo not shown) [Compound 194] | 38.6% | 113% |  |  |  |  | 
20 | O=C1NCC=C(c2ccc3ccncc3c2)c2nc(N3CCOCC3)sc21 [Compound 195] | 16.5% | 62.5% |  |  |  |  | 
21 | C=CCC1(C(=O)O)NC(=O)c2sc(N3CCOCC3)cc2C1c1ccc(Cl)c(Cl)c1 (stereo not shown) [Compound 196, 5-allyl-4-(3,4-dichlorophenyl)-2-(morpholin-4-yl)-7-oxo-4,5,6,7-tetrahydrothieno[2,3-c]pyridine-5-carboxylic acid] | 13.7% | 84.3% |  |  |  |  | 
22 | N#Cc1c(N2CCOCC2)sc2c1C(c1ccc(Cl)c(Cl)c1)CCNC2=O (stereo not shown) [Compound 199] |  |  |  |  | 65.98% | 115.55% | 
23 | O=C1N[C@@H](C(=O)NCCCO)[C@H](c2ccc(Cl)cc2)c2cc(N3CCOCC3)sc21 [Compound 200] |  |  |  |  | 48.20% | 53.94% | 
24 | O=C1NCCC(c2ccc(Cl)cc2)c2cc(N3CCOCC3)sc21 (stereo not shown) [Compound 201, 4-(4-chlorophenyl)-2-(morpholin-4-yl)-4,5,6,7-tetrahydro-8H-thieno[2,3-c]azepin-8-one] | 16.7% |  |  |  |  | 79.38% | 
25 | O=C1N[C@@H](CO)CC(c2ccc3ccccc3c2)c2nc(N3CCOCC3)sc21 (stereo partly shown) [Compound 202] |  |  |  |  | 88.75% | 113.55% | 
26 | CCNC(=O)[C@@H]1NC(=O)c2sc(N3CCOCC3)cc2[C@H]1c1ccc(Cl)cc1 [Compound 203] |  |  |  |  | 40.46% | 66.37% | 
27 | O=C1N[C@@H](C(=O)NCCO)[C@H](c2ccc(Cl)cc2)c2cc(N3CCOCC3)sc21 [Compound 204] |  |  |  |  | 51.34% | 60.14% | 
28 | Cc1cc(C2CNC(=O)c3sc(N4CCOCC4)cc32)ccc1Cl (stereo not shown) [Compound 205] |  |  |  |  | 28.04% | 96.83% | 
29 | CNC(=O)[C@@H]1NC(=O)c2sc(-c3ccncc3)cc2[C@H]1c1ccc(Cl)cc1 [Compound 206] | 41.8% | 58.5% |  |  |  |  | 
30 | CNC(=O)[C@@H]1NC(=O)c2sc(C3=CCOCC3)cc2[C@H]1c1ccc(Cl)cc1 [Compound 207] | 42.9% |  |  |  |  | 62.94% | 
31 | O=C1NCC(c2ccc(Cl)c(Cl)c2)c2cc(N3CCOCC3)sc21 (stereo not shown) [Compound 208] | 18.4% | 96.8% |  |  |  |  | 
32 | O=C1NCC(c2ccc(Cl)cc2)c2cc(N3CCOCC3)sc21 (stereo not shown) [Compound 211] | 20.5% |  |  |  |  | 62.33% | 
33 | CNC(=O)[C@@H]1NC(=O)c2sc(N3CCOCC3)cc2[C@H]1c1ccc(Cl)cc1 [Compound 212] |  |  |  |  | 54.25% | 65.59% | 
34 | O=C(O)CN1CC(c2ccc(Cl)cc2)c2cc(N3CCOCC3)sc2C1=O (stereo not shown) [Compound 213, 2-(4-(4-chlorophenyl)-2-morpholino-7-oxo-4,5-dihydrothieno[2,3-c]pyridin-6(7H)-yl)acetic acid] | 5.63% | 99.3% |  |  |  |  | 
35 | NC(=O)CN1CC(c2ccc(Cl)cc2)c2cc(N3CCOCC3)sc2C1=O (stereo not shown) [Compound 214, 2-(4-(4-chlorophenyl)-2-morpholino-7-oxo-4,5-dihydrothieno[2,3-c]pyridin-6(7H)-yl)acetamide] | 5.13% | 110% |  |  |  |  | 
